Data published in PMC9732521, “Molecular mechanism of GylR-mediated regulation of glycerol metabolism in Streptomyces clavuligerus NRRL 3585” (Frontiers in Microbiology, 2022).

What was measured:
GylR = target: T1, GylR (Streptomyces clavuligerus, UniProt E2PWC0); experiment: EMSA, dissociation of GylR from DNA probe BS2; format: binding; conditions: effector (inducer), 50 mM HEPES pH 7.5, 5 mM MgCl2, 25 °C
T1 construct: gene SCLAV_0876; coding region of gylR in pET-30a (NdeI/XhoI), C-terminal His6 tag, E. coli Rosetta (DE3), Ni-NTA; dimer by SEC
T1 sequence (E2PWC0 entry or part of it): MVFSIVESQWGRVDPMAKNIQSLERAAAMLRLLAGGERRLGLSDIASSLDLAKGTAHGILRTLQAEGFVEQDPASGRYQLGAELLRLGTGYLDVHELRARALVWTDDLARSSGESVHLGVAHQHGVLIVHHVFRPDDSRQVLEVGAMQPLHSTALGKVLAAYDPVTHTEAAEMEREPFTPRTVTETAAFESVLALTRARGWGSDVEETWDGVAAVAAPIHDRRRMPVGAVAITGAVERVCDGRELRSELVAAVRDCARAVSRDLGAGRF

[1] = target: GylR (IclR family transcriptional regulator) of Streptomyces clavuligerus NRRL 3585, C-terminal His6-tagged (Streptomyces clavuligerus NRRL 3585); experiment: SEC; TSKgel G3000 SWxl column (7.8 x 300 mm) on HPLC, 0.1 M Na2SO4 (pH 6.7), 0.5 ml/min; bovine serum albumin, ovalbumin and AlpJ as molecular weight standards

| stoichiometry N [1] | Molecule | EMSA, dissociation of GylR from DNA probe BS2 (GylR) |
| --- | --- | --- |
|  | O=C(CO)COP(=O)(O)O [DHAP, dihydroxyacetone phosphate] | both G3P and DHAP were capable of inducing the dissociation of GylR from BS2 |
|  | O=P(O)(O)OC[C@H](O)CO [G3P, glycerol-3-phosphate] | both G3P and DHAP were capable of inducing the dissociation of GylR from BS2 |
| 2 | GylR (IclR family transcriptional regulator) of Streptomyces clavuligerus NRRL 3585, C-terminal His6-tagged (natural protein) |  |
